Assay results as given in patent US20140220690A1, “MAMMALIAN GENES INVOLVED IN INFECTION” (priority 2009, published 2014).

Experiments:
herpes simplex virus = assay type: cell-based

Row | Structure (SMILES) | % Effectiveness (vaccinia virus) [%] | Effective (vaccinia virus) | Effective [uM] (vaccinia virus) [µM] | inhibition of vaccinia virus infection (in words) (vaccinia virus) | state of the cells (vaccinia virus) | spread of virus over time (vaccinia virus) | reversal of the antiviral effect of anisomycin (herpes simplex virus)
1 | C[C@]12CC[C@@H]3c4ccc(O)cc4CC[C@H]3[C@@H]1CC[C@@H]2O [17-B Estradiol, 17-B-Estradiol] | 50 | ✓ | 100 | inhibited infection with vaccinia virus | – | – | –
2 | COc1ccc(C[C@@H]2NC[C@@H](O)[C@@H]2OC(C)=O)cc1 [ANISOMYCIN, [(2S,3R,4R)-4-hydroxy-2-[(4-methoxyphenyl)methyl]pyrrolidin-3-yl]acetate] | – | – | – | – | the cells were healthy | – | –
3 | CC(C)(c1ccc(OCC2CO2)cc1)c1ccc(OCC2CO2)cc1 (stereo not drawn) [BADGE] | 75 | ✓ | 50 to 100 | inhibited infection with vaccinia virus | – | – | –
4 | C[C@]12CC[C@H](O)CC1=CC[C@@H]1[C@@H]2CC[C@]2(C)C(=O)CC[C@@H]12 [DHEA] | 99 | ✓ | 30 | inhibited infection with vaccinia virus | – | the virus usually starts to spread after day 2 | –
5 | N#CC(=C(/N)Sc1ccccc1N)/C(C#N)=C(\N)Sc1ccccc1N [U0126] | – | – | – | – | – | – | this effect was reversed
